From US12404270B2, “Quinazoline derivatives as LPA receptor 2 inhibitors” (CHIESI FARMACEUTICI S.P.A., priority 2019, dated 2025)

Target: T1, human recombinant LPA2 expressed in CHO cells (Homo sapiens, UniProt Q9HBW0)
T1 construct: expressed in transfected cells; host or cells: CHO (CHO-hLPA2 cell line)
Experiment: FLIPR calcium mobilization assay, LPA2 antagonism in CHO-hLPA2 cells
Format: cell-based
Settings: CHO-hLPA2 cells, inhibition of LPA EC80 Ca2+ response, 30 min pre-incubation; read-out: LPA2 IC50
Method: The effectiveness of compounds of the present invention as LPA2 antagonist can be determined at the human recombinant LPA2 expressed in CHO cells, using a FLIPR assay in 384 well format.
CHO-hLPA2 cell lines are cultured in a humidified incubator at 5% CO2 in DMEM/F-12 (1:1) MIXTURE with 2 mM Glutamax, supplemented with 10% of Foetal Bovine Serum, 1 mM Sodium Pyruvate, 11 mM Hepes and 1× Penicillin/Streptomycin. CHO hLPA2 cells are seeded into black walled clear-bottom 384-well plates (#781091, Greiner Bio-One GmbH) at a density of 7,500 cells per well in 50 μl culture media and grown overnight in a 37° C. humidified CO2-incubator. Serial dilutions (1:3 or 1:4, 11 points CRC) of compounds are performed in 100% DMSO at 200× the final concentration. The compounds are diluted 1:50 prior to the experiment with Assay Buffer (20 mM HEPES, 145 mM NaCl, 5 mM KCl, 5.5 mM glucose, 1 mM MgCl2 and 2 mM CaCl2, pH 7.4 containing 0.01% Pluronic F-127) to obtain a solution corresponding to […] the final concentration in the assay (4×, 2% DMSO). The final concentration of DMSO in the assay will be 0.5% in each well. Medium is removed by aspiration and cells are then incubated with 30 μl of a loading solution containing 5 μM of the cytoplasmic Ca2+ indicator Cal-520 AM in Assay Buffer containing 2.5 mM probenecid for 30 min at 37° C. incubator (cell loading). The loaded cell plates are transferred into the FLIPR instrument and calcium responses are monitored during the on-line addition protocols. For testing of compounds, after the cell loading, 10 μl/well of 4× antagonists' solution was added onto the cells. […] Intracellular peak fluorescence values subtracted by baseline fluorescence are exported and analysed to determine IC50 values, respectively. The calcium response is expressed as percentage of the maximal inhibition of the EC80 agonist response.
The raw data (peak height expressed as relative fluorescence units) are normalized and transformed into “percent of inhibition”. Curve fitting and pIC50 (−Log IC50) estimations are carried out using a four-parameter logistic model using XLfit Software.

T1 sequence (Q9HBW0 whole entry): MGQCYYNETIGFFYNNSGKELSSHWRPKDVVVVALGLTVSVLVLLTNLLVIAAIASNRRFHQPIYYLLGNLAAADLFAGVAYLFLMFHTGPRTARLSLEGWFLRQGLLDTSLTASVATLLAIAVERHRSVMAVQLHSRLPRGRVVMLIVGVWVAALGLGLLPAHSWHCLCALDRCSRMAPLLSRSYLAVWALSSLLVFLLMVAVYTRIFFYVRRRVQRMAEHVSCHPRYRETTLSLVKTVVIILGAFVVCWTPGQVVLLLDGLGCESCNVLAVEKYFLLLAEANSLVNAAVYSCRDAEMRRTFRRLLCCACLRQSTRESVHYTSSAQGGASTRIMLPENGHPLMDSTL

## COC(=O)Nc1ncc(S(=O)(=O)N2CCN(C[C@H](C)Nc3ncnc4c(C(F)(F)F)cccc34)CC2)s1 [Example 26, methyl N-[5-({4-[(2S)-2-{[8-(trifluoromethyl)quinazolin-4-yl]amino}propyl]piperazin-1-yl}sulfonyl)-1,3-thiazol-2-yl]carbamate]
  IC50: < 1000 nM

## CC(=O)Nc1cc(F)c(S(=O)(=O)N2CCN(C[C@H](C)Nc3ncnc4c(C(F)(F)F)cccc34)CC2)cc1Cl [Example 42, N-[2-chloro-5-fluoro-4-({4-[(2S)-2-{[8-(trifluoromethyl)quinazolin-4-yl]amino}propyl]piperazin-1-yl}sulfonyl)phenyl]acetamide]
  IC50: < 1000 nM

## Cc1noc(-c2ccc(S(=O)(=O)N3CCN(C[C@H](C)Nc4ncnc5c(C(=O)N(C)C)cccc45)CC3)s2)c1C [Example 43, 4-{[(2S)-1-(4-{[5-(3,4-dimethyl-1,2-oxazol-5-yl)thiophen-2-yl]sulfonyl}piperazin-1-yl)propan-2-yl]amino}-N,N-dimethylquinazoline-8-carboxamide]
  IC50: < 10 nM

## Cc1cc(-c2ccc(S(=O)(=O)N3CCN(C[C@H](C)Nc4ncnc5c(C(F)(F)F)cccc45)CC3)o2)on1 [Example 52, N-[(2S)-1-(4-{[5-(3-methyl-1,2-oxazol-5-yl)furan-2-yl]sulfonyl}piperazin-1-yl)propan-2-yl]-8-(trifluoromethyl)quinazolin-4-amine]
  IC50: 10 to 100 nM

## C[C@@H](CN1CCN(S(=O)(=O)c2ccc(-c3ccon3)s2)CC1)Nc1ncnc2c(C(F)(F)F)cccc12 [Example 53, N-[(2S)-1-(4-{[5-(1,2-oxazol-3-yl)thiophen-2-yl]sulfonyl}piperazin-1-yl)propan-2-yl]-8-(trifluoromethyl)quinazolin-4-amine]
  IC50: 10 to 100 nM

## C[C@@H](CN1CCN(S(=O)(=O)c2ccc(-c3ccno3)o2)CC1)Nc1ncnc2c(C(F)(F)F)cccc12 [Example 54, N-[(2S)-1-(4-{[5-(1,2-oxazol-5-yl)furan-2-yl]sulfonyl}piperazin-1-yl)propan-2-yl]-8-(trifluoromethyl)quinazolin-4-amine]
  IC50: < 1000 nM

## COC(=O)Nc1nc(C)c(S(=O)(=O)N2CCN(C[C@H](C)Nc3ncnc4c([N+](=O)[O-])cccc34)CC2)s1 [Example 55, methyl N-[4-methyl-5-({4-[(2S)-2-[(8-nitroquinazolin-4-yl)amino]propyl]piperazin-1-yl}sulfonyl)-1,3-thiazol-2-yl]carbamate]
  IC50: < 1000 nM

## Cc1n[nH]c(-c2ccc(S(=O)(=O)N3CCN(C[C@H](C)Nc4ncnc5c(C(F)(F)F)cccc45)CC3)o2)c1C [Example 56, N-[(2S)-1-(4-{[5-(3,4-dimethyl-1H-pyrazol-5-yl)furan-2-yl]sulfonyl}piperazin-1-yl)propan-2-yl]-8-(trifluoromethyl)quinazolin-4-amine]
  IC50: 10 to 100 nM

## COCc1nc(N[C@@H](C)CN2CCN(S(=O)(=O)c3ccc(-c4onc(C)c4C)s3)CC2)c2cccc(C(F)(F)F)c2n1 [Example 61, N-[(2S)-1-(4-{[5-(3,4-dimethyl-1,2-oxazol-5-yl)thiophen-2-yl]sulfonyl}piperazin-1-yl)propan-2-yl]-2-(methoxymethyl)-8-(trifluoromethyl)quinazolin-4-amine]
  IC50: < 1000 nM

## Cc1cc(-c2ncc(S(=O)(=O)N3CCN(C[C@H](C)Nc4ncnc5c(C(F)(F)F)cccc45)CC3)s2)on1 [Example 63, N-[(2S)-1-(4-{[2-(3-methyl-1,2-oxazol-5-yl)-1,3-thiazol-5-yl]sulfonyl}piperazin-1-yl)propan-2-yl]-8-(trifluoromethyl)quinazolin-4-amine]
  IC50: 10 to 100 nM

## C[C@@H](CN1CCN(S(=O)(=O)c2ccc(-c3ccn[nH]3)o2)CC1)Nc1ncnc2c(C(F)(F)F)cccc12 [Example 67, N-[(2S)-1-(4-{[5-(1H-pyrazol-5-yl)furan-2-yl]sulfonyl}piperazin-1-yl)propan-2-yl]-8-(trifluoromethyl)quinazolin-4-amine]
  IC50: < 1000 nM
